US7118895B2, “Process for producing aglycon by using diglycosidase and flavor-improved food containing the aglycon and converting agent to be used in the process” (Amano Enzyme Inc., priority 2000, dated 2006)

Columns and labels:
Crude diglycosidase = assay: Examination of substrate concentration in the conversion into isoflavone aglycons by diglycosidase using soybean materials; format: biochemical, Penicillium multicolor IAM7153;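 as to Decomposition efficiency: ratio of each glycoside/aglycon within its isoflavone family: percent of the isoflavone family total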
Method in brief: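 Reaction at 55° C, shaken, pH 4.0 (20 mM acetate), using crude diglycosidase from a 1.88 AU/mL enzyme solution on soy flour, soymilk, defatted soybean or soy protein concentrate at 2, 5, 10, 20 or 30% (w/v). Isoflavone aglycons quantified by HPLC of ethanol extracts at 0, 1, 3, 6 h.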

[1] = system: β-Glucosidase derived from A. niger; assay: Reactivity toward various isoflavone glycosides (HPLC); format: biochemical, Aspergillus niger; parameters: glucoside / aglycon: unit not given here; settings: 55 °C, pH 4.0
Protocol: Diglycosidase was diluted with an acetate buffer of pH 4.0 to prepare a 0.75 AU/mL enzyme solution. As references, a similar operation was conducted using β-glucosidase (manufactured by Fluka) derived from Aspergillus niger, β-glucosidase (manufactured by Sigma) derived from almond, β-xylosidase derived from pectinase G (manufactured by Amano Enzyme Inc.). Each of purified products of isoflavone glycosides (glycitin, acetylglycitin, malonylglycitin, daidzin, acetyldaidzin, malonyldaidzin, genistin, acetylgenistin, malonylgenistin, all manufactured by Nacalai Tesque, Inc.) was dissolved in methanol to prepare each 2 mM substrate solution. The reaction was carried out by mixing 10 μL of a substrate solution, 200 μL of 20 mM acetate buffer (pH 4.0), and 40 μL of each purified enzyme solution at a total liquid volume of 250 μL. The reaction was carried out at 55° C. and isolation of an aglycon isoflavone from an isoflavone glycoside in the reaction mixture was detected by HLPC at 0, 1, 3, and 6 hours of the reaction.
To the reaction mixture was added 700 μL of ethanol, followed by stirring and ultrasonication. After centrifugation at 15,000 rpm and 4° C. for 10 minutes, the supernatant was filtered through a filter and then the filtrate was applied to HPLC.
The isoflavone glycoside and aglycon isoflavone contained in the filtrate was separated and detected by a high performance liquid chromatography (HPLC, Shimadzu CLASS LC-10 system) using TOSOH TSK gel ODS-80TM column (manufactured by Tosoh Corporation). […] The absorbance at 260 nm was detected by a UV detector (Shimadzu, SPD-10AV). Using purified products (manufactured by Nacalai Tesque, Inc.) of the above isoflavone glycosides and aglycon isoflavones, the isoflavone glycoside and aglycon isoflavone were quantitatively determined according to a calibration curve method. By the way, unless otherwise stated, the measuring conditions of HPLC herein mean those described in the example.

[2] = substrate concentration 2%, heat treatment of enzyme no, reaction time 0 h
[3] = substrate concentration 2%, heat treatment of enzyme no, reaction time 1 h
[4] = substrate concentration 2%, heat treatment of enzyme no, reaction time 3 h
[5] = substrate concentration 2%, heat treatment of enzyme no, reaction time 6 h
[6] = substrate concentration 2%, heat treatment of enzyme yes, reaction time 6 h
[7] = substrate concentration 5%, heat treatment of enzyme no, reaction time 0 h
[8] = substrate concentration 5%, heat treatment of enzyme no, reaction time 1 h
[9] = substrate concentration 5%, heat treatment of enzyme no, reaction time 3 h
[10] = substrate concentration 5%, heat treatment of enzyme no, reaction time 6 h
[11] = substrate concentration 5%, heat treatment of enzyme yes, reaction time 6 h
[12] = substrate concentration 10%, heat treatment of enzyme no, reaction time 0 h
[13] = substrate concentration 10%, heat treatment of enzyme no, reaction time 1 h
[14] = substrate concentration 10%, heat treatment of enzyme no, reaction time 3 h
[15] = substrate concentration 10%, heat treatment of enzyme no, reaction time 6 h
[16] = substrate concentration 10%, heat treatment of enzyme yes, reaction time 6 h

O=C(O)CC(=O)OC[C@H]1O[C@@H](Oc2ccc3c(=O)c(-c4ccc(O)cc4)coc3c2)[C@H](O)[C@@H](O)[C@@H]1O [malonyldaidzin, 6″-O-malonyldaidzin]
Decomposition efficiency: ratio of each glycoside/aglycon within its isoflavone family (Crude diglycosidase; roasted soy flour, substrate concentration 2%, heat treatment of enzyme no, reaction time 0 h): not detected | Decomposition efficiency: ratio of each glycoside/aglycon within its isoflavone family (Crude diglycosidase; roasted soy flour, substrate concentration 2%, heat treatment of enzyme no, reaction time 1 h): not detected | Decomposition efficiency: ratio of each glycoside/aglycon within its isoflavone family (Crude diglycosidase; roasted soy flour, substrate concentration 2%, heat treatment of enzyme no, reaction time 3 h): not detected | Decomposition efficiency: ratio of each glycoside/aglycon within its isoflavone family (Crude diglycosidase; roasted soy flour, substrate concentration 2%, heat treatment of enzyme no, reaction time 6 h): not detected | Decomposition efficiency: ratio of each glycoside/aglycon within its isoflavone family (Crude diglycosidase; roasted soy flour, substrate concentration 2%, heat treatment of enzyme yes, reaction time 6 h): not detected | Decomposition efficiency: ratio of each glycoside/aglycon within its isoflavone family (Crude diglycosidase; roasted soy flour, substrate concentration 5%, heat treatment of enzyme no, reaction time 0 h): not detected | Decomposition efficiency: ratio of each glycoside/aglycon within its isoflavone family (Crude diglycosidase; roasted soy flour, substrate concentration 5%, heat treatment of enzyme no, reaction time 1 h): not detected | Decomposition efficiency: ratio of each glycoside/aglycon within its isoflavone family (Crude diglycosidase; roasted soy flour, substrate concentration 5%, heat treatment of enzyme no, reaction time 3 h): not detected | Decomposition efficiency: ratio of each glycoside/aglycon within its isoflavone family (Crude diglycosidase; roasted soy flour, substrate concentration 5%, heat treatment of enzyme no, reaction time 6 h): not detected | Decomposition efficiency: ratio of each glycoside/aglycon within its isoflavone family (Crude diglycosidase; roasted soy flour, substrate concentration 5%, heat treatment of enzyme yes, reaction time 6 h): not detected | Decomposition efficiency: ratio of each glycoside/aglycon within its isoflavone family (Crude diglycosidase; roasted soy flour, substrate concentration 10%, heat treatment of enzyme no, reaction time 0 h): not detected | Decomposition efficiency: ratio of each glycoside/aglycon within its isoflavone family (Crude diglycosidase; roasted soy flour, substrate concentration 10%, heat treatment of enzyme no, reaction time 1 h): not detected | Decomposition efficiency: ratio of each glycoside/aglycon within its isoflavone family (Crude diglycosidase; roasted soy flour, substrate concentration 10%, heat treatment of enzyme no, reaction time 3 h): not detected | Decomposition efficiency: ratio of each glycoside/aglycon within its isoflavone family (Crude diglycosidase; roasted soy flour, substrate concentration 10%, heat treatment of enzyme no, reaction time 6 h): not detected | Decomposition efficiency: ratio of each glycoside/aglycon within its isoflavone family (Crude diglycosidase; roasted soy flour, substrate concentration 10%, heat treatment of enzyme yes, reaction time 6 h): not detected | Decomposition efficiency: ratio of each glycoside/aglycon within its isoflavone family (Crude diglycosidase; roasted soy flour, substrate concentration 20%, heat treatment of enzyme no, reaction time 0 h): not detected | Decomposition efficiency: ratio of each glycoside/aglycon within its isoflavone family (Crude diglycosidase; roasted soy flour, substrate concentration 20%, heat treatment of enzyme no, reaction time 1 h): not detected | Decomposition efficiency: ratio of each glycoside/aglycon within its isoflavone family (Crude diglycosidase; roasted soy flour, substrate concentration 20%, heat treatment of enzyme no, reaction time 3 h): not detected | Decomposition efficiency: ratio of each glycoside/aglycon within its isoflavone family (Crude diglycosidase; roasted soy flour, substrate concentration 20%, heat treatment of enzyme no, reaction time 6 h): not detected | Decomposition efficiency: ratio of each glycoside/aglycon within its isoflavone family (Crude diglycosidase; roasted soy flour, substrate concentration 20%, heat treatment of enzyme yes, reaction time 6 h): not detected | Decomposition efficiency: ratio of each glycoside/aglycon within its isoflavone family (Crude diglycosidase; roasted soy flour, substrate concentration 30%, heat treatment of enzyme no, reaction time 0 h): not detected | Decomposition efficiency: ratio of each glycoside/aglycon within its isoflavone family (Crude diglycosidase; roasted soy flour, substrate concentration 30%, heat treatment of enzyme no, reaction time 1 h): not detected | Decomposition efficiency: ratio of each glycoside/aglycon within its isoflavone family (Crude diglycosidase; roasted soy flour, substrate concentration 30%, heat treatment of enzyme no, reaction time 3 h): not detected | Decomposition efficiency: ratio of each glycoside/aglycon within its isoflavone family (Crude diglycosidase; roasted soy flour, substrate concentration 30%, heat treatment of enzyme no, reaction time 6 h): not detected | Decomposition efficiency: ratio of each glycoside/aglycon within its isoflavone family (Crude diglycosidase; roasted soy flour, substrate concentration 30%, heat treatment of enzyme yes, reaction time 6 h): not detected | Decomposition efficiency: ratio of each glycoside/aglycon within its isoflavone family (Crude diglycosidase; soymilk, substrate concentration 2%, heat treatment of enzyme no, reaction time 0 h): 32.2% | Decomposition efficiency: ratio of each glycoside/aglycon within its isoflavone family (Crude diglycosidase; soymilk, substrate concentration 2%, heat treatment of enzyme no, reaction time 1 h): 27.5% | Decomposition efficiency: ratio of each glycoside/aglycon within its isoflavone family (Crude diglycosidase; soymilk, substrate concentration 2%, heat treatment of enzyme no, reaction time 3 h): 9.9% | Decomposition efficiency: ratio of each glycoside/aglycon within its isoflavone family (Crude diglycosidase; soymilk, substrate concentration 2%, heat treatment of enzyme no, reaction time 6 h): 2.9% | Decomposition efficiency: ratio of each glycoside/aglycon within its isoflavone family (Crude diglycosidase; soymilk, substrate concentration 2%, heat treatment of enzyme yes, reaction time 6 h): 47.0% | Decomposition efficiency: ratio of each glycoside/aglycon within its isoflavone family (Crude diglycosidase; soymilk, substrate concentration 5%, heat treatment of enzyme no, reaction time 0 h): 53.6% | Decomposition efficiency: ratio of each glycoside/aglycon within its isoflavone family (Crude diglycosidase; soymilk, substrate concentration 5%, heat treatment of enzyme no, reaction time 1 h): 34.2% | Decomposition efficiency: ratio of each glycoside/aglycon within its isoflavone family (Crude diglycosidase; soymilk, substrate concentration 5%, heat treatment of enzyme no, reaction time 3 h): 15.9% | Decomposition efficiency: ratio of each glycoside/aglycon within its isoflavone family (Crude diglycosidase; soymilk, substrate concentration 5%, heat treatment of enzyme no, reaction time 6 h): 6.1% | Decomposition efficiency: ratio of each glycoside/aglycon within its isoflavone family (Crude diglycosidase; soymilk, substrate concentration 5%, heat treatment of enzyme yes, reaction time 6 h): 47.6% | Decomposition efficiency: ratio of each glycoside/aglycon within its isoflavone family (Crude diglycosidase; soymilk, substrate concentration 10%, heat treatment of enzyme no, reaction time 0 h): 53.4% | Decomposition efficiency: ratio of each glycoside/aglycon within its isoflavone family (Crude diglycosidase; soymilk, substrate concentration 10%, heat treatment of enzyme no, reaction time 1 h): 37.4% | Decomposition efficiency: ratio of each glycoside/aglycon within its isoflavone family (Crude diglycosidase; soymilk, substrate concentration 10%, heat treatment of enzyme no, reaction time 3 h): 20.5% | Decomposition efficiency: ratio of each glycoside/aglycon within its isoflavone family (Crude diglycosidase; soymilk, substrate concentration 10%, heat treatment of enzyme no, reaction time 6 h): 10.7% | Decomposition efficiency: ratio of each glycoside/aglycon within its isoflavone family (Crude diglycosidase; soymilk, substrate concentration 10%, heat treatment of enzyme yes, reaction time 6 h): 47.8% | Decomposition efficiency: ratio of each glycoside/aglycon within its isoflavone family (Crude diglycosidase; soymilk, substrate concentration 20%, heat treatment of enzyme no, reaction time 0 h): 53.6% | Decomposition efficiency: ratio of each glycoside/aglycon within its isoflavone family (Crude diglycosidase; soymilk, substrate concentration 20%, heat treatment of enzyme no, reaction time 1 h): 41.2% | Decomposition efficiency: ratio of each glycoside/aglycon within its isoflavone family (Crude diglycosidase; soymilk, substrate concentration 20%, heat treatment of enzyme no, reaction time 3 h): 21.5% | Decomposition efficiency: ratio of each glycoside/aglycon within its isoflavone family (Crude diglycosidase; soymilk, substrate concentration 20%, heat treatment of enzyme no, reaction time 6 h): 16.4% | Decomposition efficiency: ratio of each glycoside/aglycon within its isoflavone family (Crude diglycosidase; soymilk, substrate concentration 20%, heat treatment of enzyme yes, reaction time 6 h): 48.1% | Decomposition efficiency: ratio of each glycoside/aglycon within its isoflavone family (Crude diglycosidase; soymilk, substrate concentration 30%, heat treatment of enzyme no, reaction time 0 h): 53.5% | Decomposition efficiency: ratio of each glycoside/aglycon within its isoflavone family (Crude diglycosidase; soymilk, substrate concentration 30%, heat treatment of enzyme no, reaction time 1 h): 43.8% | Decomposition efficiency: ratio of each glycoside/aglycon within its isoflavone family (Crude diglycosidase; soymilk, substrate concentration 30%, heat treatment of enzyme no, reaction time 3 h): 29.7% | Decomposition efficiency: ratio of each glycoside/aglycon within its isoflavone family (Crude diglycosidase; soymilk, substrate concentration 30%, heat treatment of enzyme no, reaction time 6 h): 21.9% | Decomposition efficiency: ratio of each glycoside/aglycon within its isoflavone family (Crude diglycosidase; soymilk, substrate concentration 30%, heat treatment of enzyme yes, reaction time 6 h): 46.9% | Decomposition efficiency of daidzin family in defatted soybean (Crude diglycosidase; [2]): 42.2 | Decomposition efficiency of daidzin family in defatted soybean (Crude diglycosidase; [3]): 35.2 | Decomposition efficiency of daidzin family in defatted soybean (Crude diglycosidase; [4]): 21.2 | Decomposition efficiency of daidzin family in defatted soybean (Crude diglycosidase; [5]): 16.5 | Decomposition efficiency of daidzin family in defatted soybean (Crude diglycosidase; [6]): 38.1 | Decomposition efficiency of daidzin family in defatted soybean (Crude diglycosidase; [7]): 41.1 | Decomposition efficiency of daidzin family in defatted soybean (Crude diglycosidase; [8]): 37.7 | Decomposition efficiency of daidzin family in defatted soybean (Crude diglycosidase; [9]): 30.6 | Decomposition efficiency of daidzin family in defatted soybean (Crude diglycosidase; [10]): 21.0 | Decomposition efficiency of daidzin family in defatted soybean (Crude diglycosidase; [11]): 38.1 | Decomposition efficiency of daidzin family in defatted soybean (Crude diglycosidase; [12]): 39.7 | Decomposition efficiency of daidzin family in defatted soybean (Crude diglycosidase; [13]): 39.5 | Decomposition efficiency of daidzin family in defatted soybean (Crude diglycosidase; [14]): 34.2 | Decomposition efficiency of daidzin family in defatted soybean (Crude diglycosidase; [15]): 29.0 | Decomposition efficiency of daidzin family in defatted soybean (Crude diglycosidase; [16]): 37.0 | aglycon ([1]; Reaction time 0 h): 0 | glucoside ([1]; Reaction time 0 h): 100 | aglycon ([1]; Reaction time 1 h): 4.5 | glucoside ([1]; Reaction time 1 h): 95.5 | aglycon ([1]; Reaction time 3 h): 9.3 | glucoside ([1]; Reaction time 3 h): 90.7 | aglycon ([1]; Reaction time 6 h): 16 | glucoside ([1]; Reaction time 6 h): 84

O=c1c(-c2ccc(O)cc2)coc2cc(O)cc(O)c12 [genistein]
Decomposition efficiency of genistin family in defatted soybean (Crude diglycosidase; [2]): 15.1 | Decomposition efficiency of genistin family in defatted soybean (Crude diglycosidase; [3]): 68.6 | Decomposition efficiency of genistin family in defatted soybean (Crude diglycosidase; [4]): 83.0 | Decomposition efficiency of genistin family in defatted soybean (Crude diglycosidase; [5]): 88.6 | Decomposition efficiency of genistin family in defatted soybean (Crude diglycosidase; [6]): 18.0 | Decomposition efficiency of genistin family in defatted soybean (Crude diglycosidase; [7]): 14.2 | Decomposition efficiency of genistin family in defatted soybean (Crude diglycosidase; [8]): 61.2 | Decomposition efficiency of genistin family in defatted soybean (Crude diglycosidase; [9]): 69.9 | Decomposition efficiency of genistin family in defatted soybean (Crude diglycosidase; [10]): 80.7 | Decomposition efficiency of genistin family in defatted soybean (Crude diglycosidase; [11]): 15.4 | Decomposition efficiency of genistin family in defatted soybean (Crude diglycosidase; [12]): 14.1 | Decomposition efficiency of genistin family in defatted soybean (Crude diglycosidase; [13]): 57.2 | Decomposition efficiency of genistin family in defatted soybean (Crude diglycosidase; [14]): 64.0 | Decomposition efficiency of genistin family in defatted soybean (Crude diglycosidase; [15]): 70.3 | Decomposition efficiency of genistin family in defatted soybean (Crude diglycosidase; [16]): 14.5
